{"source": "paper PMC9293909", "about": "(Nature Communications, 2022)", "key": {"in vitro": {"assay": "in vitro", "details": "human, plasma"}, "[1]": {"assay": "Half-life determination in human plasma", "details": "UoBern01 at 1.00E-06 M"}, "[2]": {"assay": "Half-life determination in PBS", "format": "physicochemical", "details": "PBS, pH 7.4", "procedure": "[…] Samples were analysed by HPLC-MS/MS and corresponding peak areas were recorded for each analyte. The ratio of precursor compound remaining after each time-point relative to the amount present at time 0, expressed as a percentage, is reported as chemical stability."}, "[3]": {"assay": "Intrinsic clearance by human liver microsomes", "details": "UoBern01 at 1.00E-07 M"}, "[4]": {"system": "postsynaptic A1Rs, CA1 pyramidal cells", "assay": "Whole-cell patch-clamp, membrane potential of CA1 pyramidal cells", "format": "cell-based, rat", "procedure": "Rats were kept on a 12-hour light-dark cycle with slices made 90 min after entering the light cycle. […] The brain was removed, cut down the midline and the two sides of the brain stuck down to a metal base plate using cyanoacrylate glue. […] Slices were stored at 34 °C for 1–6 h in aCSF (1 mM MgCl2, 2 mM CaCl2) before use.\n(§1) A slice was transferred to the recording chamber and perfused at 3 ml min^−1 with aCSF at 32 ± 0.5 °C. Slices were visualised using IR-DIC optics with an Olympus BX151W microscope (Scientifica) and a CCD camera (Hitachi). […] Voltage and current recordings were obtained using an Axon Multiclamp 700B amplifier (Molecular Devices, USA) and digitised at 20 KHz. Data acquisition and analysis was performed using pClamp 10 (Molecular Devices, USA). For voltage-clamp experiments, CA1 pyramidal cells were held at −60 mV. Peptides to interfere with G protein signalling were introduced via the patch pipette into the recorded cell."}, "[5]": {"system": "CA1 pyramidal cells (Goa / Gob signalling)", "assay": "Whole-cell voltage-clamp, adenosine-induced outward current with intracellular G protein interfering peptides", "format": "cell-based, rat", "details": "adenosine 10 µM, peptide 100 µM, held at −60 mV", "procedure": "as §1\nDrugs were made up as stock solutions (1-10 mM) and then diluted in aCSF or saline on the day of use. […] MRS1523 was purchased from Cayman Chemicals (Cambridge Bioscience Ltd., Cambridge UK). […] CA200645 and peptides for interfering with G protein signalling were obtained from Hello Bio (Bristol, UK) and were based on published sequences. […] The scrambled version was […]. […] Peptides were made up as stock solutions (2 mM) and stored at −20 °C. The stock solutions were dissolved in filtered intracellular solution just before use."}, "[6]": {"details": "incubation 0 minutes, UoBern01 at 1.00E-06 M"}, "[7]": {"details": "incubation 60 minutes, UoBern01 at 1.00E-06 M"}, "[8]": {"details": "incubation 120 minutes, UoBern01 at 1.00E-06 M"}, "[9]": {"details": "incubation 180 minutes, 1.00E-06 M"}, "[10]": {"details": "incubation 240 minutes, 1.00E-06 M"}}, "note": "“And” between values parts separate entries of the source, which are not always exact repeats. Identical values can stand only once."}
{"compound": "CCCOc1cc(N)ccc1C(=O)OCCN(CC)CC", "note": "[Propoxycaine]", "values": [{"measurement": "half-life", "setting": "in vitro", "result": 3.8, "unit": "min"}, {"measurement": "2nd / Half-Life", "setting": "[1]", "result": 3.4, "unit": "min"}, {"measurement": "Mean / Half-Life", "setting": "[1]", "result": 4, "unit": "min"}, {"measurement": "1st / % Compound Remaining", "setting": "[1]; incubation 0 minutes", "result": 100, "unit": "%"}, {"measurement": "2nd / % Compound Remaining", "setting": "[1]; incubation 0 minutes", "result": 100, "unit": "%"}, {"measurement": "Mean / % Compound Remaining", "setting": "[1]; incubation 0 minutes", "result": 100, "unit": "%"}, {"measurement": "1st / % Compound Remaining", "setting": "[1]; incubation 30 minutes", "result": 0.4, "unit": "%"}, {"measurement": "2nd / % Compound Remaining", "setting": "[1]; incubation 30 minutes", "result": 0.2, "unit": "%"}, {"measurement": "Mean / % Compound Remaining", "setting": "[1]; incubation 30 minutes", "result": 0.3, "unit": "%"}, {"measurement": "1st / % Compound Remaining", "setting": "[1]; incubation 60 minutes", "result": 0.3, "unit": "%"}, {"measurement": "2nd / % Compound Remaining", "setting": "[1]; incubation 60 minutes", "result": 0.2, "unit": "%"}, {"measurement": "Mean / % Compound Remaining", "setting": "[1]; incubation 60 minutes", "result": 0.3, "unit": "%"}, {"measurement": "1st / % Compound Remaining", "setting": "[1]; incubation 90 minutes", "result": 0.3, "unit": "%"}, {"measurement": "2nd / % Compound Remaining", "setting": "[1]; incubation 90 minutes", "result": 0.5, "unit": "%"}, {"measurement": "Mean / % Compound Remaining", "setting": "[1]; incubation 90 minutes", "result": 0.4, "unit": "%"}, {"measurement": "1st / % Compound Remaining", "setting": "[1]; incubation 120 minutes", "result": 0.1, "unit": "%"}, {"measurement": "2nd / % Compound Remaining", "setting": "[1]; incubation 120 minutes", "result": 0.3, "unit": "%"}, {"measurement": "Mean / % Compound Remaining", "setting": "[1]; incubation 120 minutes", "result": 0.2, "unit": "%"}]}
{"compound": "OC[C@H]1O[C@@H](n2cnc3c(N[C@@H]4CCC[C@H]4OCc4ccccc4)ncnc32)[C@H](O)[C@@H]1O", "note": "[UoBern01]", "values": [{"measurement": "2nd / Half-Life", "setting": "[2]; UoBern01 at 1.00E-06 M", "result": ">240", "unit": "min"}, {"measurement": "Mean / Half-Life", "setting": "[2]; UoBern01 at 1.00E-06 M", "result": ">240", "unit": "min"}, {"measurement": "1st / % Compound Remaining", "setting": "[2]; [6]", "result": 100, "unit": "%"}, {"measurement": "2nd / % Compound Remaining", "setting": "[2]; [6]", "result": 100, "unit": "%"}, {"measurement": "Mean / % Compound Remaining", "setting": "[2]; [6]", "result": 100, "unit": "%"}, {"measurement": "1st / % Compound Remaining", "setting": "[2]; [7]", "result": 100, "unit": "%"}, {"measurement": "2nd / % Compound Remaining", "setting": "[2]; [7]", "result": "{204.3} %"}, {"measurement": "Mean / % Compound Remaining", "setting": "[2]; [7]", "result": 100, "unit": "%"}, {"measurement": "1st / % Compound Remaining", "setting": "[2]; [8]", "result": 99.8, "unit": "%"}, {"measurement": "2nd / % Compound Remaining", "setting": "[2]; [8]", "result": 105.3, "unit": "%"}, {"measurement": "Mean / % Compound Remaining", "setting": "[2]; [8]", "result": 102.5, "unit": "%"}, {"measurement": "1st / % Compound Remaining", "setting": "[2]; [9]", "result": 96.7, "unit": "%"}, {"measurement": "2nd / % Compound Remaining", "setting": "[2]; [9]", "result": "{108.7} %"}, {"measurement": "Mean / % Compound Remaining", "setting": "[2]; [9]", "result": 96.7, "unit": "%"}, {"measurement": "1st / % Compound Remaining", "setting": "[2]; [10]", "result": 89.5, "unit": "%"}, {"measurement": "2nd / % Compound Remaining", "setting": "[2]; [10]", "result": 100.9, "unit": "%"}, {"measurement": "Mean / % Compound Remaining", "setting": "[2]; [10]", "result": 95.2, "unit": "%"}, {"measurement": "1st / Half-Life", "setting": "[1]", "result": ">120", "unit": "min"}, {"measurement": "2nd / Half-Life", "setting": "[1]", "result": ">120", "unit": "min"}, {"measurement": "Mean / Half-Life", "setting": "[1]", "result": ">120", "unit": "min"}, {"measurement": "1st / % Compound Remaining", "setting": "[1]; incubation 0 minutes", "result": 100, "unit": "%"}, {"measurement": "2nd / % Compound Remaining", "setting": "[1]; incubation 0 minutes", "result": 100, "unit": "%"}, {"measurement": "Mean / % Compound Remaining", "setting": "[1]; incubation 0 minutes", "result": 100, "unit": "%"}, {"measurement": "1st / % Compound Remaining", "setting": "[1]; incubation 30 minutes", "result": 104.2, "unit": "%"}, {"measurement": "2nd / % Compound Remaining", "setting": "[1]; incubation 30 minutes", "result": "{224.0} %"}, {"measurement": "Mean / % Compound Remaining", "setting": "[1]; incubation 30 minutes", "result": 104.2, "unit": "%"}, {"measurement": "1st / % Compound Remaining", "setting": "[1]; incubation 60 minutes", "result": 124.2, "unit": "%"}, {"measurement": "2nd / % Compound Remaining", "setting": "[1]; incubation 60 minutes", "result": 99, "unit": "%"}, {"measurement": "Mean / % Compound Remaining", "setting": "[1]; incubation 60 minutes", "result": 111.6, "unit": "%"}, {"measurement": "1st / % Compound Remaining", "setting": "[1]; incubation 90 minutes", "result": 133.3, "unit": "%"}, {"measurement": "2nd / % Compound Remaining", "setting": "[1]; incubation 90 minutes", "result": 101.7, "unit": "%"}, {"measurement": "Mean / % Compound Remaining", "setting": "[1]; incubation 90 minutes", "result": 117.5, "unit": "%"}, {"measurement": "1st / % Compound Remaining", "setting": "[1]; incubation 120 minutes", "result": "{142.4} %"}, {"measurement": "2nd / % Compound Remaining", "setting": "[1]; incubation 120 minutes", "result": 108.4, "unit": "%"}, {"measurement": "Mean / % Compound Remaining", "setting": "[1]; incubation 120 minutes", "result": 108.4, "unit": "%"}, {"measurement": "Clint", "setting": "[3]", "result": "<115.5"}, {"measurement": "Mean / Half-Life", "setting": "[3]", "result": ">60", "unit": "min"}, {"measurement": "1st / % Compound Remaining", "setting": "[3]; incubation 0 minutes", "result": 100, "unit": "%"}, {"measurement": "2nd / % Compound Remaining", "setting": "[3]; incubation 0 minutes", "result": 100, "unit": "%"}, {"measurement": "Mean / % Compound Remaining", "setting": "[3]; incubation 0 minutes", "result": 100, "unit": "%"}, {"measurement": "1st / % Compound Remaining", "setting": "[3]; incubation 15 minutes", "result": 108.5, "unit": "%"}, {"measurement": "2nd / % Compound Remaining", "setting": "[3]; incubation 15 minutes", "result": 101.9, "unit": "%"}, {"measurement": "Mean / % Compound Remaining", "setting": "[3]; incubation 15 minutes", "result": 105.2, "unit": "%"}, {"measurement": "1st / % Compound Remaining", "setting": "[3]; incubation 30 minutes", "result": 92.9, "unit": "%"}, {"measurement": "2nd / % Compound Remaining", "setting": "[3]; incubation 30 minutes", "result": 86, "unit": "%"}, {"measurement": "Mean / % Compound Remaining", "setting": "[3]; incubation 30 minutes", "result": 89.4, "unit": "%"}, {"measurement": "1st / % Compound Remaining", "setting": "[3]; incubation 45 minutes", "result": 92, "unit": "%"}, {"measurement": "2nd / % Compound Remaining", "setting": "[3]; incubation 45 minutes", "result": 89.5, "unit": "%"}, {"measurement": "Mean / % Compound Remaining", "setting": "[3]; incubation 45 minutes", "result": 90.7, "unit": "%"}, {"measurement": "1st / % Compound Remaining", "setting": "[3]; incubation 60 minutes", "result": 84.1, "unit": "%"}, {"measurement": "2nd / % Compound Remaining", "setting": "[3]; incubation 60 minutes", "result": 69.7, "unit": "%"}, {"measurement": "Mean / % Compound Remaining", "setting": "[3]; incubation 60 minutes", "result": 76.9, "unit": "%"}]}
{"compound": "NCC(CC(=O)O)c1ccc(Cl)cc1", "note": "(stereo not drawn) [baclofen]", "values": [{"measurement": "membrane hyperpolarisation", "setting": "[4]; baclofen 10 µM in the presence of BnOCPA 300 nM", "result": "6.5 ± 0.43", "unit": "mV"}, {"measurement": "membrane hyperpolarisation", "setting": "[4]; baclofen in control conditions", "result": "6.3 ± 0.76", "unit": "mV"}]}
{"compound": "LNRGNAYLCIGMG [Goa SCR, scrambled version of the Goa interfering peptide]", "values": [{"measurement": "adenosine-induced outward current with intracellular peptide", "setting": "[5]", "result": "45.8 pA and 40.3 pA and 52.5 pA and 32 pA and 47 pA and 43.9 pA and 42 pA"}, {"measurement": "adenosine-induced outward current with intracellular peptide", "setting": "[5]; listed as scrambled Goa peptide", "result": "43.4 ± 2.4", "unit": "pA"}, {"measurement": "adenosine-induced outward current with intracellular peptide", "setting": "[5]; mean", "result": 43.36, "unit": "pA"}]}
